Test results published in US4237135A, “2-(4-Ethyl-1-piperazinyl)-4-phenylquinoline, process for preparation thereof, and composition thereof” (Dainippon Pharmaceutical Co., Ltd., priority 1978, dated 1980).
Read-outs that look alike come from different tables or passages of the source.

Columns and labels:
[1] = test system: antidepressant activity; assay: Antidepressant activity, overall (Test 1); assay type: in vivo, male STD-ddY strain mice; male Wistar strain rats
Description: This effect was examined according to the method of […]. 2, 725 (1963)], using male STD-ddY strain mice weighing 20-25 g. […] Rectal temperature of each mouse was measured 4 hours later with a thermister (Shibaura Electric, BMG III-130). […] Male STD-ddY strain mice, weighing […], were used in groups of 10 mice each. […] The mice were tested for catalepsy 1 hour after the administration of test compounds. ED50 was calculated for each compound. […] Male STD-ddY strain mice, weighing 20-25 g, were used in groups of 10 mice each. […] Two hours after the tetrabenazine injection, the degree of eyelid closure (ptosis) was assessed on the basis of macroscopic scoring (0: no closure of the eyelid, 1: 1/4 closure, 2: 2/4 closure, 3: 3/4 closure and 4: complete closure), essentially according to the method of P. A. J. Janssen [Arzneim. Forsch. 15, 104 (1965)]. ED50 was calcuated for each compound. […] Male Wistar strain rats, weighing 240-260 g, which had developed mouse-killing behavior after ablation of the olfactory bulb according to the method of Z. P. Horovitz [Int. J. Neuropharmacol. 5, 405 (1966)], were used in groups of 15 animals each. […] ED50 was calculated for each compound.

[2] = test system: tremorine-induced tremor; assay: Anti-tremorine activity (antagonistic effect on tremorine-induced tremor); assay type: in vivo, male STD-ddY strain mice
Description: (§1) Pharmacological experiments have been done on the compound of the present invention, some known and novel analogous compounds and an antidepressant on the market, as mentioned below. In the experiments, ED50 was calculated by Litchfield-Wilcoxon method.
Male STD-ddY strain mice, weighing 20-25 g, were used in groups of 5 mice each. Each test compound was given orally to the mice in 5 different doses, and 2 hours later 20 mg/kg of tremorine was injected intraperitoneally. Half an hour after the injection of tremorine, each mouse was examined macroscopically for tremor severity, according to the rating scale with the scores 0, 1, 2, and 3 depending on the severity. ED50 was calculated for each compound. The ED50 means the dose of test compound in which the tremorine-induced tremor was inhibited by 50% in severity.

[3] = test system: brain 5-hydroxyindoleacetic acid (5-HIAA); assay: Effect on brain monoamine metabolites: 5-HIAA; assay type: in vivo, male Wistar strain rats; conditions: 100 mg/kg p.o.; for Brain 5-HIAA, % of control: *P<0.01
Description: (§2) Each test compound was given orally to the rats in a dose of 100 mg/kg and, 1, 3 and 6 hours later the rats were sacrificed. […] The concentrations of the monoamine metabolites were calculated in terms of ng/g wet brain tissue and expressed as % of the concentrations of controls receiving saline.

[4] = test system: ptosis induced by tetrabenazine; assay: Anti-tetrabenazine activity: antagonistic effect on ptosis induced by tetrabenazine; assay type: in vivo, male STD-ddY strain mice; conditions: Mus musculus, po; tetrabenazine 70 mg/kg i.p.; Table 2
Description: Pharmacological experiments have been done on the compound of the present invention, some known and novel analogous compounds and an antidepressant on the market, as mentioned below. In the experiments, ED50 was calculated by Litchfield-Wilcoxon method. Male STD-ddY strain mice, weighing 20-25 g, were used in groups of 10 mice each. […] Two hours after the tetrabenazine injection, the degree of eyelid closure (ptosis) was assessed on the basis of macroscopic scoring (0: no closure of the eyelid, 1: 1/4 closure, 2: 2/4 closure, 3: 3/4 closure and 4: complete closure), essentially according to the method of P. A. J. Janssen [Arzneim. Forsch. 15, 104 (1965)]. ED50 was calcuated for each compound.

[5] = test system: catalepsy induced by reserpine; assay: Anti-reserpine activity: antagonistic effect on catalepsy induced by reserpine; assay type: in vivo, male STD-ddY strain mice; conditions: p.o.; for ED50: Mus musculus, po, 1 h, reserpine 5 mg/kg i.p.
Description: In the experiments, ED50 was calculated by Litchfield-Wilcoxon method. Male STD-ddY strain mice, weighing […], were used in groups of 10 mice each. […] The mice were tested for catalepsy 1 hour after the administration of test compounds. ED50 was calculated for each compound.

[6] = test system: hypothermia induced by reserpine; assay: Anti-reserpine activity: antagonistic effect on hypothermia induced by reserpine; assay type: in vivo, male STD-ddY strain mice; conditions: p.o.; for ED50: Mus musculus, po, 4 h, reserpine 5 mg/kg i.p.
Description: Pharmacological experiments have been done on the compound of the present invention, some known and novel analogous compounds and an antidepressant on the market, as mentioned below. In the experiments, ED50 was calculated by Litchfield-Wilcoxon method. This effect was examined according to the method of […]. 2, 725 (1963)], using male STD-ddY strain mice weighing 20-25 g. […] Rectal temperature of each mouse was measured 4 hours later with a thermister (Shibaura Electric, BMG III-130).

[7] = test system: spontaneous and methamphetamine-induced locomotor activities; assay: Neuroleptics-like activity, overall (Test 2); assay type: in vivo, male STD-ddY strain mice; conditions: overall conclusion
Description: Each test compound was given orally to the mice in 5 different doses, and 2 hours later the spontaneous locomotor activity of each mouse was measured for 3 minutes by means of an Animex locomotor activity meter (made by Farad Electronics). ED50 was calculated for each compound.
Male STD-ddY strain mice, weighing 20-25 g, were used in groups of 10 mice each. Groups of mice were injected intraperitoneally with 4 mg/kg of methamphetamine, and 30 minutes later each test compound was injected intraperitoneally in 3 different doses. One hour after the injection of methamphetamine, locomotor activity of each mouse was measured for 10 minutes with an Animex locomotor activity meter.

[8] = test system: brain 3-methoxy-4-hydroxyphenylethylene glycol sulfate (MOPEG-SO4); assay: Effect on brain monoamine metabolites: MOPEG-SO4; assay type: in vivo, male Wistar strain rats; conditions: 100 mg/kg p.o.; for Brain MOPEG-SO4, % of control: *P<0.01
Description: as §2

[9] = test system: mice; assay: Acute toxicity; conditions: mouse, in vivo
Description: (§3) Male STD-ddY strain mice, weighing 20-25 g, were used. Each test compound was given orally or intraperitoneally to the mice (each group: 10 mice) in 5 to 7 different doses, and their mortality was examined during the observation period of 7 days. The median lethal dose (LD50) was calculated for each compound by the probit method.

[10] = Acute toxicity; conditions: mouse, in vivo, 7 days observation
Description: as §3

[11] = test system: mouse-killing behavior of olfactory bulb-ablated rats; assay: Suppressing effect on mouse-killing behavior in olfactory bulb-ablated rats; assay type: in vivo, male Wistar strain rats
Description: as §1
Male Wistar strain rats, weighing 240-260 g, which had developed mouse-killing behavior after ablation of the olfactory bulb according to the method of Z. P. Horovitz [Int. J. Neuropharmacol. 5, 405 (1966)], were used in groups of 15 animals each. Each test compound was given intraperitoneally to the rats in 6 different doses, and 1 hours later the rats were each tested as to whether they killed a mouse or not. ED50 was calculated for each compound.

## CCN1CCN(c2cc(-c3ccccc3)c3ccccc3n2)CC1.Cl.Cl [A, 2-(4-Ethyl-1-piperazinyl)-4-phenylquinoline dihydrochloride]
[1]; hypothermia and catalepsy, p.o.
  Anti-reserpine activity (in words): more potent anti-reserpine activity than imipramine
[1]; overall conclusion
  Antidepressant activity (in words): more potent than its analogues, compounds 1 and 2 and also than imipramine
[1]; versus compounds 4 and 5, Table 2, p.o.
  Anti-reserpine and anti-tetrabenazine potency relative to compounds 4 and 5: 2-17 times more potent
[2]; Mus musculus, po, tremorine 20 mg/kg i.p., read-out: Anti-tremorine activity ED50
  ED50: 9.7 mg/kg
[2]; p.o.
  Anti-tremorine activity (in words): more potent than imipramine and almost comparable to biperiden
[3]
  Brain 5-HIAA concentration / serotonin turnover (in words): does not affect brain 5-HIAA concentration
[3]; 1 hour
  Brain 5-HIAA, % of control: 118 % of control
[3]; 3 hours
  Brain 5-HIAA, % of control: 110 % of control
[3]; 6 hours
  Brain 5-HIAA, % of control: 116 % of control
[4]
  ED50: 1.8 mg/kg
[5]; Table 1, read-out: Anti-reserpine activity ED50, catalepsy
  ED50: 1.5 mg/kg
[5]; Table 2, read-out: Anti-reserpine ED50, catalepsy
  ED50: 1.5 mg/kg
[5]; versus imipramine
  Potency in antagonizing reserpine catalepsy relative to imipramine: 25.5 times more powerful
[6]; Table 1, read-out: Anti-reserpine activity ED50, hypothermia
  ED50: 5.8 mg/kg
[6]; Table 2, read-out: Anti-reserpine ED50, hypothermia
  ED50: 5.8 mg/kg
[6]; versus imipramine
  Potency in antagonizing reserpine hypothermia relative to imipramine: 3.7 times more powerful
[7]
  Neuroleptics-like activity (in words): shows some neuroleptics-like effects
[8]
  Brain MOPEG-SO4 concentration / noradrenaline turnover (in words): significant decrease in brain MOPEG-SO4 concentration
[8]; 1 hour
  Brain MOPEG-SO4, % of control: 82 % of control
[8]; 3 hours
  Brain MOPEG-SO4, % of control: 70 % of control
[8]; 6 hours
  Brain MOPEG-SO4, % of control: 63 % of control
[9]
  Acute toxicity (in words): comparable to or somewhat weaker than that of imipramine
[10]; ip
  LD50 at 168 h: 119 mg/kg
[10]; po
  LD50 at 168 h: 568 mg/kg
[11]; Rattus norvegicus, ip, 1 hour after dosing, read-out: Suppressing effect on mouse-killing behavior of olfactory bulb-ablated rats, ED50
  ED50: 5 mg/kg
[11]; versus imipramine, i.p.
  Suppression of mouse-killing behavior (in words): as potent as imipramine
